{"source": "patent US8529915B2", "about": "“(R)-(-)-1,2-propanediol compositions and methods” (priority 2010, dated 2013)", "key": {"philtrum skin": {"test_system": "philtrum skin", "test": "philtrum skin cooling bioassay", "format": "in vivo, human", "settings": "for cooling activity AUC in (R)-1,2-propanediol / cooling activity AUC in racemic-1,2-propanediol: ± S.E.M.; for cooling effect: applied to the philtrum", "excerpt": "The term “alcoholic solvent” refers to a chemical with one to four carbons with at least one hydroxyl group attached to a carbon atom. A reliable place for topical application is the skin above the upper lip (above the vermilion border of the lips), on the philtrum, lateral to the philtrum until the nasolabial folds, and on the lower nostrils (subnasale). This part of the face is known to be densely innervated with cold receptors, second only to the surfaces of the eyeball and anogenitalia. Tingling, cool and cold sensations from the skin may be experienced and rated for time of onset and intensity.\nThe intervals for recording sensations are 5 to 10 minutes, until two successive zeroes are obtained. The results (shown in the Figures) are averaged values of 4 to 6 separate trials in the same individual. The data are plotted using SigmaPlot (Systat Software, Point Richmond Calif.) and a smoothing function with a negative exponential was used for analysis and statistical fit of the results. The onset of drug action is taken as the time to reach 2 units of coolness intensity, and offset of drug action is the time when coolness intensity drops below 2, after previously surpassing 2 units. The duration of cooling action is defined as the offset time minus the onset time and the primary index of effect. […]\nUsing a cotton-tipped applicator (e.g. Q-tips®) 0.10 to 0.25 ml of the test solution was applied to the skin above the upper lip, on the philtrum, and lateral to the philtrum up to the nasolabial folds, and the onset and duration of cooling sensations noted. […] The interval for recording sensations was at 5 to 10 minute intervals, until at least two successive zeroes were obtained. The results were averaged values of 3 to 6 separate trials in the same individual. The “onset” is the time taken to reach a coolness intensity value of 2. […] The “off-set” is when the coolness intensity drops below 2, and the duration is the time of off-set minus the time of onset. The area under the curve (AUC) also gives an estimate of the intensity and duration of drug action and can be obtained from the plotted data using SigmaPlot (Systat Software, Point Richmond Calif.). The AUC is given in average ±S.E.M. units which is the product of cooling intensity×min."}, "[1]": {"test_system": "itch (contact dermatitis) on the scalp", "test": "scalp itch (contact dermatitis) case, topical application", "format": "in vivo, human", "settings": "for sensations of coolness after application to scalp: 5 mg/ml in 1% ethanol-99% (R)-1,2-propanediol, droplet delivery; for itch after two days of applications: applications spaced approximately 10 hours apart, scalp", "experimental": "An individual developed intense itch (contact dermatitis) on the scalp at the base of the skull after use of hair dye. A cotton-tipped stick was used to apply CPS-410 or CPS-412, 5 mg/ml dissolved in a 1% ethanol-99% (R)-1,2-propanediol, to the site of itch. The itch sensations were suppressed within 5 min of application of either solution and this effect lasted for at least 8 hr. In a second experiment, the solutions were applied using a plastic bottle with a conical Yorker spout. This allowed more precise droplet delivery of the solution to the site of itch. […] The advantage of liquid formulation is the ease of uniform delivery to the inflamed site, a method not achievable with cream or ointment. Itch symptoms of hair and fur occur in seborrheic dermatitis, psoriasis, insect bites, canine pruritus, and allergic dermatitis. Liquid formulations containing (R)-1,2-propanediol and a cooling agent may be therapeutically valuable in these conditions."}, "tongue": {"test_system": "tongue", "settings": "average for 6 subjects, filter paper on dorsal tongue, 30 seconds; cited from earlier work"}, "[2]": {"test_system": "axillary skin lesion of plaque psoriasis", "test": "plaque psoriasis case, axillary skin lesion itch and burning", "format": "in vivo, human", "settings": "same patient, subsequent treatment", "excerpt": "A person with an 8-year history of plaque psoriasis complained of an axillary skin lesion that itched, had burning sensations, and kept them awake at night. Their condition was severe and chronic. Their parent complained that they had to vacuum their bedroom every day in order to remove flaking skin debris. […] They volunteered to try CPS-148, 2% dissolved in 1% ethanol-99% (R)-1,2-propanediol, and was given instructions on how to apply the solution to their site of itch with a swab stick (Q-tip™). They claimed after the first time of application at night the burning sensations and itch disappeared within 5 to 10 min and they were able to have a good night's sleep. They continued to use the solution on an “as-needed basis” for one month and claimed that they slept much better than before."}, "TRP-M8 receptor": {"molecular_target": "TRP-M8 receptor (Homo sapiens, UniProt Q7Z2W7)", "sequence (Q7Z2W7 whole entry)": "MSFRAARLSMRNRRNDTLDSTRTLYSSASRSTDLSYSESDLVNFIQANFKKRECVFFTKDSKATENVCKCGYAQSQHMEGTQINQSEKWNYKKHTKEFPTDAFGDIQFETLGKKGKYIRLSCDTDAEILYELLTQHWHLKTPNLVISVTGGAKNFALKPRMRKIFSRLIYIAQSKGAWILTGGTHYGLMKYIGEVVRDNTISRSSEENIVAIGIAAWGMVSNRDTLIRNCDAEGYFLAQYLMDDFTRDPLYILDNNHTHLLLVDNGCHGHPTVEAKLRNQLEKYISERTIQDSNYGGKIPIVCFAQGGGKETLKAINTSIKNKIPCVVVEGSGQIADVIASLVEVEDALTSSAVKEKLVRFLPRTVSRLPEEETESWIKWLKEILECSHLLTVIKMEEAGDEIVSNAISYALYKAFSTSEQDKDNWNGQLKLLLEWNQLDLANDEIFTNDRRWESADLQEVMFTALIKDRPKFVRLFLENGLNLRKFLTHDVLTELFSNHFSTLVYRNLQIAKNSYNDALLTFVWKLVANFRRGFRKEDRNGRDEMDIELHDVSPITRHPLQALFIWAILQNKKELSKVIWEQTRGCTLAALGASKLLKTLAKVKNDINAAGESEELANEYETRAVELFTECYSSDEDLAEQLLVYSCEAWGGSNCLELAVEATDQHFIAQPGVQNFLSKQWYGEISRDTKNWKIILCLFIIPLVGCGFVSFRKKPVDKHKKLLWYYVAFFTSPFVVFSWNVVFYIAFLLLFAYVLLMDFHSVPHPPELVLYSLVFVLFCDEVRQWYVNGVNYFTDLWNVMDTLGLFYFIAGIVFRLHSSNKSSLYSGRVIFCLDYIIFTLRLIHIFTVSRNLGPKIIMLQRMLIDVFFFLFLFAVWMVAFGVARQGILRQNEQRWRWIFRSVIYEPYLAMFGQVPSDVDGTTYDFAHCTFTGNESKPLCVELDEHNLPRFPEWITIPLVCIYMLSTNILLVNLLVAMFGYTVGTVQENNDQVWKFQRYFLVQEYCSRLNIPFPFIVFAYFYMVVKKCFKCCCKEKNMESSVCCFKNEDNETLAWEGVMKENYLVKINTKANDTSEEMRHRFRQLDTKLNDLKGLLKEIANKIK", "settings": "cited from earlier work"}, "solubility in solvents": {"test": "solubility in solvents", "format": "physicochemical", "settings": "organic solvent or mixture", "experimental": "Many cooling agents are more soluble in ethanol than in 1,2-propanediol. For example, W-3 and CPS-369 are soluble in absolute ethanol at >300 mg/ml and >500 mg/ml, respectively. These compounds are less soluble in 1,2-propanediol, with solubilities of about 10 mg/ml at standard conditions. To formulate liquid compositions of cooling agents, it is convenient to use up to 5% of ethanol in the total volume to dissolve the cooling agent and then add the rest as (R)-1,2-propanediol to complete the formulation without significant loss of cooling actions."}, "rodents": {"test_system": "rodents", "settings": "oral; cited from earlier work"}, "humans": {"test_system": "humans", "settings": "based on intravenous infusion studies; cited from earlier work"}, "[3]": {"settings": "5 mg/ml, (R)-1,2-propanediol with 1% ethanol vol/vol, philtrum"}, "[4]": {"settings": "5 mg/ml, racemic 1,2-propanediol with 1% ethanol vol/vol, philtrum"}, "[5]": {"settings": "CPS-369 at 10 mg/ml dissolved in the named solvent, applied to philtrum skin, based on AUC, inactive = coolness intensity did not exceed 2 units"}, "[6]": {"settings": "absolute ethanol, read-out: solubility in absolute ethanol"}, "[7]": {"settings": "1,2-propanediol, standard conditions, read-out: solubility in 1,2-propanediol"}}, "note": "Entries after “also recorded” stand apart in the source; their conditions may differ. Where two headings read alike, the source gives them in different places.", "data": [{"compound": "CCCOC(=O)[C@@H](C)NC(=O)[C@@H]1C[C@H](C)CC[C@H]1C(C)C", "note": "[CPS-410, (R)-2-[((1R,2S,5R)-2-isopropyl-5-methyl-cyclohexanecarbonyl)-amino]-propionic acid n-propyl ester]", "values": [{"measurement": "cooling activity AUC in (R)-1,2-propanediol", "setting": "philtrum skin; [3]", "result": "281 ± 7", "unit": "cooling intensity × min"}, {"measurement": "cooling activity AUC in racemic-1,2-propanediol", "setting": "philtrum skin; [4]", "result": "122 ± 12", "unit": "cooling intensity × min"}, {"measurement": "sensations of coolness after application to scalp", "setting": "[1]", "result": "produced sensations of coolness"}, {"measurement": "itch after two days of applications", "setting": "[1]", "result": "no longer present"}]}, {"compound": "OCCCO", "note": "[1,3-propanediol]", "values": [{"measurement": "Cooling Activity % (relative to (R)-1,2-propanediol)", "setting": "philtrum skin; [5]", "result": "significant loss of cooling activity; also recorded: inactive"}]}, {"compound": "n-propanol", "values": [{"measurement": "Cooling Activity % (relative to (R)-1,2-propanediol)", "setting": "philtrum skin; [5]", "result": "loss of cooling activity; also recorded: inactive"}]}, {"compound": "CC1CCC(C(C)C)C(O)C1", "note": "(single isomer, unassigned; (-)) [(−)-menthol]", "values": [{"measurement": "Threshold (amount producing cooling sensations on the tongue), average", "setting": "tongue", "result": 0.25, "unit": "µg"}]}, {"compound": "Enbrel®", "values": [{"measurement": "psoriatic condition after a course of treatment", "setting": "[2]", "result": "improved considerably"}]}, {"compound": "(R)-1,2-propanediol", "values": [{"measurement": "reversal of ethanol inhibition of WS-5 cooling", "setting": "philtrum skin; added at 10%, 20% and 40% vol/vol to ethanolic solution of WS-5 10 mg/ml, philtrum", "result": "reversed the ethanol inhibition in a dose-dependent relationship"}]}, {"compound": "CCCCOC(=O)[C@@H](C)NC(=O)[C@@H]1C[C@H](C)CC[C@H]1C(C)C", "note": "[CPS-412, (R)-2-[((1R,2S,5R)-2-isopropyl-5-methyl-cyclohexanecarbonyl)-amino]-propionic acid n-butyl ester]", "values": [{"measurement": "cooling activity AUC in (R)-1,2-propanediol", "setting": "philtrum skin; [3]", "result": "243 ± 5", "unit": "cooling intensity × min"}, {"measurement": "cooling activity AUC in racemic-1,2-propanediol", "setting": "philtrum skin; [4]", "result": "127 ± 10", "unit": "cooling intensity × min"}, {"measurement": "sensations of coolness after application to scalp", "setting": "[1]", "result": "less noticeable"}, {"measurement": "itch after two days of applications", "setting": "[1]", "result": "no longer present"}]}, {"compound": "C[C@H](O)CO", "note": "[(S)-1,2-propanediol]", "values": [{"measurement": "Cooling Activity % (relative to (R)-1,2-propanediol)", "setting": "philtrum skin; [5]", "result": 47, "unit": "%"}]}, {"compound": "CC(C)O", "note": "[isopropanol]", "values": [{"measurement": "Cooling Activity % (relative to (R)-1,2-propanediol)", "setting": "philtrum skin; [5]", "result": "loss of cooling activity; also recorded: inactive"}]}, {"compound": "CCO", "note": "[ethanol]", "values": [{"measurement": "Cooling Activity % (relative to (R)-1,2-propanediol)", "setting": "philtrum skin; [5]", "result": "loss of cooling activity; also recorded: inactive"}, {"measurement": "TRP-M8 receptor response to (−)-menthol", "setting": "TRP-M8 receptor; 3% concentration of ethanol", "result": "almost totally lost"}]}, {"compound": "CCNC(=O)C1CC(C)CCC1C(C)C", "note": "(stereo not drawn) [WS-3, 2-Isopropyl-5-methyl-cyclohexanecarboxylic acid ethylamide]", "values": [{"measurement": "cooling effect", "setting": "philtrum skin; 20 mg/ml in absolute ethanol", "result": "did not produce significant cooling"}, {"measurement": "cooling activity AUC in (R)-1,2-propanediol", "setting": "philtrum skin; 20 mg/ml, (R)-1,2-propanediol with 3% ethanol vol/vol, philtrum", "result": "122 ± 8", "unit": "cooling intensity × min"}, {"measurement": "cooling activity AUC in racemic-1,2-propanediol", "setting": "philtrum skin; 20 mg/ml, racemic 1,2-propanediol with 3% ethanol vol/vol, philtrum", "result": "64 ± 6", "unit": "cooling intensity × min"}, {"measurement": "solubility", "setting": "solubility in solvents; [6]", "result": "> 300000", "unit": "µg/mL"}, {"measurement": "solubility", "setting": "solubility in solvents; [7]", "result": "~10000", "unit": "µg/mL"}]}, {"compound": "CCCCCCP(=O)(C(C)CC)C(C)CC", "note": "(stereo not drawn) [CPS-147, 1-(Di-sec-butyl-phosphinoyl)-hexane]", "values": [{"measurement": "cooling activity AUC in (R)-1,2-propanediol", "setting": "philtrum skin; 3 mg/ml, (R)-1,2-propanediol with 2% ethanol vol/vol, philtrum", "result": "81 ± 4", "unit": "cooling intensity × min"}, {"measurement": "cooling activity AUC in racemic-1,2-propanediol", "setting": "philtrum skin; 3 mg/ml, racemic 1,2-propanediol with 2% ethanol vol/vol, philtrum", "result": "64 ± 4", "unit": "cooling intensity × min"}]}, {"compound": "CCOC(=O)CNC(=O)[C@@H]1C[C@H](C)CC[C@H]1C(C)C", "note": "[WS-5, [((1R,2S,5R)-2-isopropyl-5-methyl-cyclohexanecarbonyl)-amino]-acetic acid ethyl ester]", "values": [{"measurement": "cooling effect", "setting": "philtrum skin; 10 mg/ml in 100% ethanol", "result": "did not produce any cooling effect"}]}, {"compound": "C[S+](C)[O-]", "note": "[Dimethylsulfoxide]", "values": [{"measurement": "in vitro inhibition of TRP-M8 response relative to alcohols", "setting": "TRP-M8 receptor; Benedikt et al. 2007", "result": "less inhibitory"}]}, {"compound": "CC(O)CO", "note": "(racemic) [racemic 1,2-propanediol, 1,2-propanediol]", "values": [{"measurement": "median lethal dose", "setting": "rodents", "result": "about 25 ml/kg of body weight"}, {"measurement": "estimated “safe” dose", "setting": "humans", "result": "1 g per kg body weight per day"}]}, {"compound": "CC(O)CCO", "note": "(racemic) [racemic 1,3-butanediol, 1,3-butanediol]", "values": [{"measurement": "Cooling Activity % (relative to (R)-1,2-propanediol)", "setting": "philtrum skin; [5]", "result": 10, "unit": "%"}, {"measurement": "Cooling Activity % (relative to (R)-1,2-propanediol)", "setting": "philtrum skin; in vivo", "result": "significant loss of cooling activity"}]}, {"compound": "CCCCCCCP(=O)(C(C)CC)C(C)CC", "note": "(stereo not drawn) [CPS-148, 1-(Di-sec-butyl-phosphinoyl)-heptane]", "values": [{"measurement": "cooling activity AUC in (R)-1,2-propanediol", "setting": "philtrum skin; 2 mg/ml, (R)-1,2-propanediol with 1% ethanol vol/vol, philtrum", "result": "173 ± 15", "unit": "cooling intensity × min"}, {"measurement": "cooling activity AUC in racemic-1,2-propanediol", "setting": "philtrum skin; 2 mg/ml, racemic 1,2-propanediol with 1% ethanol vol/vol, philtrum", "result": "75 ± 6", "unit": "cooling intensity × min"}]}, {"compound": "CCOC(=O)[C@@H](C)NC(=O)[C@@H]1C[C@H](C)CC[C@H]1C(C)C", "note": "[CPS-369, (R)-2-[((1R,2S,5R)-2-isopropyl-5-methyl-cyclohexanecarbonyl)-amino]-propionic acid ethyl ester]", "values": [{"measurement": "cooling activity AUC in (R)-1,2-propanediol", "setting": "philtrum skin; [3]", "result": "218 ± 12", "unit": "cooling intensity × min"}, {"measurement": "cooling activity AUC in racemic-1,2-propanediol", "setting": "philtrum skin; [4]", "result": "134 ± 16", "unit": "cooling intensity × min"}, {"measurement": "solubility", "setting": "solubility in solvents; [6]", "result": "> 500000", "unit": "µg/mL"}, {"measurement": "solubility", "setting": "solubility in solvents; [7]", "result": "~10000", "unit": "µg/mL"}]}]}
